Experimental data: US10519114B2, “Peptidomimetics and methods of using the same” (The Regents of the University of Michigan, priority 2016, dated 2019)

Columns and labels:
[1] = target: T1, rat μ (C6-MOR) opioid receptor (Rattus norvegicus, UniProt P33535); experiment: Radioligand binding assay, [3H]diprenorphine displacement, MOR; details: displacement of 0.2 nM [3H]diprenorphine, C6-MOR membranes; mean ± standard error
T1 construct: expressed in transfected cells
Method in brief: (§1)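 Membranes from C6 glioma cells stably expressing rat MOR or DOR, or CHO cells expressing human KOR (20 μg protein), were incubated with 0.2 nM [3H]diprenorphine and test peptide in 50 mM Tris-HCl pH 7.4 for 1 h at room temperature. Nonspecific binding defined with 10 μM naloxone; Ki from nonlinear regression.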

[2] = target: T2, rat δ (C6-DOR) opioid receptor (Rattus norvegicus, UniProt P33533); experiment: Radioligand binding assay, [3H]diprenorphine displacement, DOR; details: displacement of 0.2 nM [3H]diprenorphine, C6-DOR membranes; mean ± standard error
T2 construct: expressed in transfected cells
T2 sequence (P33533 whole entry): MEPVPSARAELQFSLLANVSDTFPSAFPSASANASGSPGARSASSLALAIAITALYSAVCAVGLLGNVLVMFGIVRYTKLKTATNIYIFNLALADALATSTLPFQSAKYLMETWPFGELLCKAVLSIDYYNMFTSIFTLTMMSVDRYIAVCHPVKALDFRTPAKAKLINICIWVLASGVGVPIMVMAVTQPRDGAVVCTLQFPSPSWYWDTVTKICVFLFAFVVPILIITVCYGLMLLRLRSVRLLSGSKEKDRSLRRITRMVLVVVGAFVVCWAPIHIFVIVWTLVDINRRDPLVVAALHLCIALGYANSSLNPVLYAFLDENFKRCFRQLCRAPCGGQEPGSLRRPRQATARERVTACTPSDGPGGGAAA
Method in brief: as §1

[3] = target: T3, human κ (CHO-KOR) opioid receptor (Homo sapiens, UniProt P41145); experiment: Radioligand binding assay, [3H]diprenorphine displacement, KOR; details: displacement of 0.2 nM [3H]diprenorphine, CHO-KOR membranes; mean ± standard error
T3 construct: expressed in transfected cells
T3 sequence (P41145 whole entry): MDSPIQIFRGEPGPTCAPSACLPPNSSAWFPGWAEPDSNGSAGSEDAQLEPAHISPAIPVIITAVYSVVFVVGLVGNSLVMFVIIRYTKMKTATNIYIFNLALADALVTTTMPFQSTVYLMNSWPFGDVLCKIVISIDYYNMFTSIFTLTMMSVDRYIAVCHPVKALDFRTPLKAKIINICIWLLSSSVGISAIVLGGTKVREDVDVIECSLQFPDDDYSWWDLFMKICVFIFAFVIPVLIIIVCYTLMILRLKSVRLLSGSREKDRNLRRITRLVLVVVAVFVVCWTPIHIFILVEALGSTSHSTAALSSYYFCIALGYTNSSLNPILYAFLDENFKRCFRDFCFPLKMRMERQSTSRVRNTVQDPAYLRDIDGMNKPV
Method in brief: as §1

[4] = target: T1, rat μ (C6-MOR) opioid receptor; experiment: Stimulation of [35S]GTPγS binding, MOR; assay type: biochemical; details: for EC50: [35S]GTPγS binding, C6-MOR membranes, mean ± standard error; for Emax: [35S]GTPγS maximal stimulation compared with 10 μM standard DAMGO
Method in brief: (§2)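 Peptide-stimulated [35S]GTPγS (0.1 nM) binding, with 30 μM GDP, 5 mM MgCl2 and 100 mM NaCl at pH 7.4, was measured over 1 h at room temperature. Membranes came from rat MOR/DOR C6 or human KOR CHO cells. Filter-retained counts were expressed against 10 μM DAMGO, DPDPE or U69,593 respectively; maxima were fitted nonlinearly.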

[5] = target: T2, rat δ (C6-DOR) opioid receptor; experiment: Stimulation of [35S]GTPγS binding, DOR; assay type: biochemical; details: for EC50 / EC50 (nm) DOR: [35S]GTPγS binding, C6-DOR membranes, mean ± standard error; for Emax / % stimulation DOR: [35S]GTPγS maximal stimulation compared with 10 μM standard DPDPE
Method in brief: as §2

[6] = target: T3, human κ (CHO-KOR) opioid receptor; experiment: Stimulation of [35S]GTPγS binding, KOR; assay type: biochemical
Method in brief: as §2

[7] = [35S]GTPγS binding, CHO-KOR membranes, mean ± standard error
[8] = [35S]GTPγS maximal stimulation compared with 10 μM standard U-69,593

T1 sequence (P33535 whole entry): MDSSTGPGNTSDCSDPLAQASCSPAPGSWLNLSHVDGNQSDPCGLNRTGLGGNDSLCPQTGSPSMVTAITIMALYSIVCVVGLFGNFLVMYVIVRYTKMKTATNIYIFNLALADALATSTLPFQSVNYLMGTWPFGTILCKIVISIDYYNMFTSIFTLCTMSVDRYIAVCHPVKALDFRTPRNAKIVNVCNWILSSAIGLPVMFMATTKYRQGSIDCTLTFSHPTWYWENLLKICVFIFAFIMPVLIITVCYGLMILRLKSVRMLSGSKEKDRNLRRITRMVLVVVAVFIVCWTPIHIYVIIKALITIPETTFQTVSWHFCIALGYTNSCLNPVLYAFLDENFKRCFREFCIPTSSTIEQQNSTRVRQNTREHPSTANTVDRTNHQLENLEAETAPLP

Row | Structure (SMILES) | Ki [1] [nM] | Ki [2] [nM] | Ki [3] [nM] | EC50 [4] [nM] | Emax [4] [%] | EC50 [5] [nM] | Emax [5] [%] | EC50 [6, 7] [nM] | Emax [6, 8] [%] | EC50 (nm) DOR [5] | % stimulation DOR [5] | EC50 (nm) KOR [6, 7] | % stimulation KOR [6, 8]
1 | Cc1cc(O)cc(C)c1C[C@H](N)C(=O)N[C@@H]1CCOc2ccc(Cc3ccccc3)cc21 [Compound 1111] | 0.046 ± 0.028 | 8.65 ± 1.61 | 58.3 ± 14.1 | 4.85 ± 2.14 | 69.7 ± 5.97 | 118 ± 2.45 | 8.97 ± 4.78 | 662 ± 152 | 28.3 ± 6.71 | – | – | – | –
2 | Cc1cc(O)cc(C)c1C[C@H](N)C(=O)N[C@H]1CCOc2ccc(Cc3ccccc3)cc21 [Compound 1112] | 6.07 ± 2.41 | 260 ± 62.9 | 354 ± 37.1 | 654 ± 361 | 7.18 ± 2.41 | – | 2.48 ± 3.08 | – | -0.061 ± 0.45 | – | – | – | –
3 | Cc1cc(O)cc(C)c1C[C@H](N)C(=O)N[C@@H]1CCCc2ccccc21 [Compound 1113] | 25.6 ± 10.9 | 640 ± 218 | 2060 ± 582 | – | 3.44 ± 2.09 | – | -0.76 ± 0.62 | – | -1.05 | – | – | – | –
4 | Cc1cc(O)cc(C)c1C[C@H](N)C(=O)NC1CCc2ccc(Cc3ccccc3)cc21 (some centres unmarked) [Compound 1114] | 0.55 ± 0.09 | 29.9 ± 10.1 | 143 ± 45.4 | 18.3 ± 8.14 | 42.6 ± 8.65 | – | 3.07 ± 1.82 | 1600 | 3.7 ± 4.06 | – | – | – | –
5 | Cc1cc(O)cc(C)c1C[C@H](N)C(=O)N[C@@H]1CCCc2ccc(-c3cccc4ccccc34)cc21 [Compound 1115] | 5.44 ± 2.7 | 45.5 ± 26.9 | 131 ± 42.3 | – | 0.34 ± 3.26 | – | -2.57 ± 4.3 | 200 | 3.82 ± 3.2 | – | – | – | –
6 | Cc1cc(O)cc(C)c1C[C@H](N)C(=O)N[C@@H]1CCCc2ccc(-c3ccc4ccccc4c3)cc21 [Compound 1116] | 0.24 ± 0.12 | 6.03 ± 0.2 | 315.9 ± 0.91 | – | -1.1 ± 1.61 | – | 1.75 ± 1.44 | 237 | 5.57 ± 8.53 | – | – | – | –
7 | Cc1cc(O)cc(C)c1C[C@H](N)C(=O)N[C@@H]1CCCc2ccc(-c3ccccc3)cc21 [Compound 1117] | 0.57 ± 0.32 | 3.99 ± 1.31 | 20.9 ± 4.12 | 9.51 ± 3.3 | 28.7 ± 2.39 | 181 ± 28.2 | 21.2 ± 10.7 | 321 ± 176 | 45.6 ± 1.77 | – | – | – | –
8 | Cc1cc(O)cc(C)c1C[C@H](N)C(=O)N[C@@H]1CCSc2ccc(Cc3ccccc3)cc21 [Compound 1123] | 0.15 ± 0.04 | 4.79 ± 1.11 | 48.4 ± 23.1 | 1.92 ± 0.54 | 79.9 ± 7.51 | – | – | 337 ± 205 | 10.3 ± 5.17 | dns | dns | – | –
9 | Cc1cc(O)cc(C)c1C[C@H](N)C(=O)N[C@@H]1CCS(=O)(=O)c2ccc(Cc3ccccc3)cc21 [Compound 1124] | 0.06 ± 0.01 | 2.34 ± 1.42 | 27.2 ± 5.99 | 0.72 ± 0.11 | 94.5 ± 3.04 | 126 ± 72.5 | 45.2 ± 5.62 | 721 ± 317 | 35.8 ± 2.15 | – | – | – | –
10 | CC(=O)N1CC[C@@H](NC(=O)[C@@H](N)Cc2c(C)cc(O)cc2C)c2cc(CC3Cc4ccccc4C3C)ccc21 (some centres unmarked) [Compound 1125] | 0.28 ± 0.12 | 0.67 ± 0.08 | 2.53 ± 1.52 | 3.03 ± 2.32 | 69.5 ± 10.4 | – | – | – | – | dns | dns | dns | dns
11 | Cc1cc(O)cc(C)c1C[C@H](N)C(=O)N[C@@H]1CCNc2c(CN3CCNCC3)cc(Cc3ccccc3)cc21 [Compound 1131] | 0.35 | 22 | 1.9 | 8 | 61 | 280 | 17 | 190 | 18 | – | – | – | –
